For 18 substances, 3 h FOB score results are on record in the OligoGym collection.

HELM strings list units from the 5' end as sugar, base in round brackets, then linkage (d deoxyribose, r ribose, m 2'-O-methyl, p phosphodiester). Strings are as the collection lists them; they lack the last nucleoside at the 3' end of the tested compound. [moe] = 2'-O-(2-methoxyethyl) (MOE); [sp] = phosphorothioate linkage; [m5C] = 5-methylcytosine

For the data set, the target named is PRNP. The experiment in a line: mouse, dose not given. The settings on record: ASO.
“RNA1{[moe](G)[sp].[moe](T)p.[moe](G)p.[moe](T)p.d([m5C])[sp].d(A)[sp].d(T)[sp].d(A)[sp].d(A)[sp].d(T)[sp].d(T)[sp].d(T)[sp].d(T)[sp].d([m5C])[sp].[moe](T)p.[moe](T)p.[moe](A)p.[moe](G)[sp].[moe]([m5C])}$$$$ (last 3' nucleoside missing)” showed a 3 h FOB score of 0 score 0-7. Take “RNA1{[moe](G)[sp].[moe](T)p.[moe](G)p.[moe]([m5C])p.[moe](T)[sp].d(T)[sp].d(A)[sp].d(T)[sp].d(T)[sp].d(A)[sp].d(T)[sp].d(T)[sp].d([m5C])[sp].d(A)[sp].d(T)[sp].[moe](G)p.[moe](T)p.[moe](T)[sp].[moe]([m5C])}$$$$ (last 3' nucleoside missing)”: the 3 h FOB score is 0.5 score 0-7.

The substance “RNA1{[moe](G)[sp].[moe](T)p.[moe](T)p.[moe](A)p.[moe](G)[sp].d([m5C])[sp].d(T)[sp].d(T)[sp].d(T)[sp].d(T)[sp].d(T)[sp].d(T)[sp].d(T)[sp].d([m5C])[sp].d(A)[sp].[moe]([m5C])p.[moe](T)p.[moe](G)[sp].[moe](T)}$$$$ (last 3' nucleoside missing)” displayed a 3 h FOB score of 0.5 score 0-7. For “RNA1{[moe](G)[sp].[moe](T)p.[moe](T)p.[moe](G)p.[moe](A)[sp].d(T)[sp].d(T)[sp].d(T)[sp].d(T)[sp].d(T)[sp].d([m5C])[sp].d([m5C])[sp].d(A)[sp].d(G)[sp].d(A)[sp].[moe](A)p.[moe](G)p.[moe](T)[sp].[moe](T)}$$$$ (last 3' nucleoside missing)” the value was 3.25 score 0-7. As to “RNA1{[moe](G)[sp].[moe](T)p.[moe](T)p.[moe](G)p.[moe](T)[sp].d(G)[sp].d(A)[sp].d([m5C])[sp].d(A)[sp].d(A)[sp].d(T)[sp].d(A)[sp].d(T)[sp].d(T)[sp].d(T)[sp].[moe](A)p.[moe]([m5C])p.[moe](T)[sp].[moe]([m5C])}$$$$ (last 3' nucleoside missing)”, the 3 h FOB score was 0 score 0-7.

In turn, “RNA1{[moe](G)[sp].[moe](T)p.[moe](T)p.[moe](G)p.[moe](T)[sp].d(T)[sp].d(G)[sp].d(A)[sp].d(T)[sp].d(T)[sp].d(T)[sp].d(T)[sp].d(T)[sp].d([m5C])[sp].d([m5C])[sp].[moe](A)p.[moe](G)p.[moe](A)[sp].[moe](A)}$$$$ (last 3' nucleoside missing)” displayed a 3 h FOB score of 4.75 score 0-7. For “RNA1{[moe](G)[sp].[moe](T)p.[moe](T)p.[moe](G)p.[moe](T)[sp].d(T)[sp].d(G)[sp].d(T)[sp].d(T)[sp].d(T)[sp].d([m5C])[sp].d(T)[sp].d(T)[sp].d(T)[sp].d(T)[sp].[moe]([m5C])p.[moe](T)p.[moe](G)[sp].[moe](G)}$$$$ (last 3' nucleoside missing)” the value was 6 score 0-7. The substance “RNA1{[moe](G)[sp].[moe](T)p.[moe](T)p.[moe](T)p.[moe]([m5C])[sp].d([m5C])[sp].d([m5C])[sp].d(A)[sp].d([m5C])[sp].d(A)[sp].d(T)[sp].d(A)[sp].d(T)[sp].d(T)[sp].d(A)[sp].[moe](A)p.[moe](G)p.[moe](T)[sp].[moe](A)}$$$$ (last 3' nucleoside missing)” had a 3 h FOB score of 1 score 0-7. For “RNA1{[moe](G)[sp].[moe](T)p.[moe](T)p.[moe]([m5C])p.[moe](A)[sp].d(G)[sp].d(A)[sp].d(G)[sp].d(A)[sp].d(A)[sp].d(T)[sp].d([m5C])[sp].d(T)[sp].d(T)[sp].d(T)[sp].[moe]([m5C])p.[moe](A)p.[moe]([m5C])[sp].[moe]([m5C])}$$$$ (last 3' nucleoside missing)” the value was 0 score 0-7; for “RNA1{[moe](G)[sp].[moe](T)p.[moe](T)p.[moe]([m5C])p.[moe](A)[sp].d(G)[sp].d(T)[sp].d(G)[sp].d(T)[sp].d(T)[sp].d(G)[sp].d(T)[sp].d(G)[sp].d(A)[sp].d([m5C])[sp].[moe](A)p.[moe](A)p.[moe](T)[sp].[moe](A)}$$$$ (last 3' nucleoside missing)”, 6.75 score 0-7; for “RNA1{[moe](G)[sp].[moe](T)p.[moe](T)p.[moe]([m5C])p.[moe](A)[sp].d([m5C])[sp].d(T)[sp].d(G)[sp].d(T)[sp].d(G)[sp].d(A)[sp].d(A)[sp].d(T)[sp].d(A)[sp].d(T)[sp].[moe](G)p.[moe](T)p.[moe]([m5C])[sp].[moe]([m5C])}$$$$ (last 3' nucleoside missing)”, 4.25 score 0-7. The result for “RNA1{[moe](G)[sp].[moe](T)p.[moe](T)p.[moe]([m5C])p.[moe](T)[sp].d(A)[sp].d(A)[sp].d(T)[sp].d(T)[sp].d(T)[sp].d(T)[sp].d(A)[sp].d(G)[sp].d(A)[sp].d(T)[sp].[moe]([m5C])p.[moe](A)p.[moe](T)[sp].[moe](T)}$$$$ (last 3' nucleoside missing)” reads 2 score 0-7; that for “RNA1{[moe](G)[sp].[moe](T)p.[moe](T)p.[moe]([m5C])p.[moe](T)[sp].d(T)[sp].d(T)[sp].d(T)[sp].d([m5C])[sp].d(T)[sp].d(T)[sp].d(T)[sp].d(G)[sp].d([m5C])[sp].d(A)[sp].[moe]([m5C])p.[moe](A)p.[moe]([m5C])[sp].[moe](T)}$$$$ (last 3' nucleoside missing)”, 6.25 score 0-7. The result for “RNA1{[moe](G)[sp].[moe](T)p.[moe]([m5C])p.[moe](A)p.[moe](A)[sp].d(A)[sp].d(A)[sp].d(T)[sp].d([m5C])[sp].d(A)[sp].d(T)[sp].d(T)[sp].d([m5C])[sp].d(T)[sp].d(G)[sp].[moe](G)p.[moe](T)p.[moe](T)[sp].[moe](T)}$$$$ (last 3' nucleoside missing)” reads 1 score 0-7. Regarding “RNA1{[moe](G)[sp].[moe](T)p.[moe]([m5C])p.[moe](A)p.[moe](G)[sp].d(T)[sp].d(T)[sp].d(T)[sp].d(T)[sp].d(T)[sp].d([m5C])[sp].d([m5C])[sp].d([m5C])[sp].[moe]([m5C])p.[moe](A)p.[moe]([m5C])[sp].[moe](A)}$$$$ (last 3' nucleoside missing)”, the 3 h FOB score turned out to be 0 score 0-7.

Substance “RNA1{[moe](G)[sp].[moe](T)p.[moe]([m5C])p.[moe](A)p.[moe](G)[sp].d(T)[sp].d(T)[sp].d(T)[sp].d(T)[sp].d(T)[sp].d([m5C])[sp].d([m5C])[sp].d([m5C])[sp].d([m5C])[sp].d(A)[sp].[moe]([m5C])p.[moe](A)p.[moe](T)[sp].[moe](A)}$$$$ (last 3' nucleoside missing)” had a 3 h FOB score of 1 score 0-7.

Turning to “RNA1{[moe](G)[sp].[moe](T)p.[moe]([m5C])p.[moe](A)p.[moe](G)p.[moe](T)p.d(T)[sp].d(T)[sp].d(T)[sp].d(T)[sp].d([m5C])[sp].d([m5C])[sp].d([m5C])[sp].d([m5C])[sp].d(A)[sp].d([m5C])[sp].[moe](A)p.[moe](T)[sp].[moe](A)}$$$$ (last 3' nucleoside missing)”, the 3 h FOB score is 0 score 0-7.

Take “RNA1{[moe](G)[sp].[moe](T)p.[moe]([m5C])p.[moe](A)p.[moe](G)p.d(T)[sp].d(T)[sp].d(T)[sp].d(T)[sp].d(T)[sp].d([m5C])[sp].d([m5C])[sp].d([m5C])[sp].d([m5C])[sp].[moe](A)[sp].[moe]([m5C])p.[moe](A)p.[moe](T)}$$$$ (last 3' nucleoside missing)”: the 3 h FOB score is 0 score 0-7.
